# Test results from patent publication US4710498A, “Pyridyloxy derivatives” (Ikeda Mohando Co., Ltd., priority 1984, dated 1987).
# Read-outs that look alike come from different tables or passages of the source.
# What was measured:
# [1] = test system: Gastric Acid Secretion Induced by Histamine; test: Inhibition effect on gastric acid secretion induced by histamine in pylorus ligated rat (subcutaneous); type: in vivo, male Wistar rat; conditions: Rattus norvegicus; 0.2 mg/kg SC; histamine 3 mg/kg SC; average of five runs; read-out: Secretion of Gastric Acid in Rat, Inhibition Rate (%)
# Method: (§1) A male Wistar rat having a body weight of about 160 g and which had not fed for 24 hours was anesthetized by an intraperitoneal dose of 1.2 g/kg of urethane. After ligating of pylorus and esophagus, the gaster anterior was incised and fitting with a double polyethylene cannula. The wall of the stomach was rinsed with 5 ml of saline at 30 minutes intervals, and the quantity of gastric acid contained in each rinsing solution was measured by titration.
# The basal acid secretion was initially measured three times, and then 0.2 mg/kg of each of the compounds of this invention was administered subcutaneously and 3 mg/kg of histamine was administered subcutaneously after the lapse of an additional 30 minutes.
# (§2) The quantity of gastric acid secreted after the operation was measured continuously for 3 hours. Within that measurement interval, three time points at which the increase in acid secretion reached a maximum level were selected, and the average quantity of gastric acid secreted at those time points was taken as the increase in acid secretion, which was compared with the increase in acid secretion of the control group to calculate the percent inhibition for secretion of gastric acid (Table 1). [formula] (The result was shown as the average value of five runs.)
# [2] = test system: Gastric Acid Secretion Induced by Histamine; test: Inhibitory effect of intraduodenally administered compounds on gastric acid secretion induced by histamine in rat; type: in vivo, male Wistar rat; conditions: for ED50: Rattus norvegicus, intraduodenal, 30 minutes before histamine SC, read-out: Median effective dose (ED50) inhibiting Gastric Acid Section (95% Reliability Limit); for Efficacy Ratio relative to Cimetidine (Cimetidine = 1): rat, in vivo
# Method: The test was conducted by an improved method based on that reported by Watanabe et al., in "Pharmacometrics", Vol. 3, No. (1), pages 7 to 14 (1969).
# as §1, §2
# Histamine H2 -Receptor = biological target: T1, Histamine H2 -Receptor (Cavia porcellus, UniProt P47747); test: biochemical; set-up: species or system male Hartley guinea pig; conditions: negative logarithm of molar concentration; isolated guinea pig atrium; read-out: Antagonistic Action against Histamine H2 -Receptor (pA2) Determined by Using Atrium isolated from Guinea Pig (converted)
# T1 construct: from tissue; host or cells: isolated right atrium of male Hartley guinea pig
# T1 sequence (P47747 whole entry): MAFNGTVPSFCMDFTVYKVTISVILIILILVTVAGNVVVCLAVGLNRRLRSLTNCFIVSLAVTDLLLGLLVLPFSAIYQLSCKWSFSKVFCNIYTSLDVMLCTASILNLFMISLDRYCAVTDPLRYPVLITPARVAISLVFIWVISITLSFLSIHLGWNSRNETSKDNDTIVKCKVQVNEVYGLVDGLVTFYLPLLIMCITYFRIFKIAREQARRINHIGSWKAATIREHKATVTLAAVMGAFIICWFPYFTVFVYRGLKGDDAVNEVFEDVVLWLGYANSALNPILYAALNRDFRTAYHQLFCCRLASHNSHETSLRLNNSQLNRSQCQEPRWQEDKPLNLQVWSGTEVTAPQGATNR
# Method: A male Hartley guinea pig having a body weight of about 400 g was killed by cervical dislocation, and the atrium thereof was isolated and was suspended in an organ bath containing […] of a modified Ringer solution and subjected to a tension of 1 g. The number of heart beats under such condition was recorded using a polygraph.
# Initially, from 1×10^-7 mol to 3×10^-4 mol of histamine was allowed to act accumulatively to depict the curve of the dosage-reaction relationship. Likewise, the curve of the dosage of histamine-reaction relationship was depicted in the presence of 5×10^-7 mol to 1×10^-6 mol of the test sample which was injected 3 minutes before. The negative logarithm (pA2) of the molar concentration of the test sample required for moving the curve obtained by single administration of histamine parallel to the right side by a two-times concentration was calculated.
# [3] = Acute toxicity test on mice dosed orally; type: in vivo; conditions: mouse, in vivo, po
# Method: (§3) Male ddy mice each having a body weight of about 22 g and which had not eaten for 8 hours were orally dosed with the test samples, and the general symptoms and fatalities were observed from the time immediately following the administration to 14 days after the administration.
# (§4) The median lethal dose (LD50) was calculated in accordance with the Litchfield and Wilcoxon Method.
# Mice = test: Acute toxicity test on mice dosed orally; type: in vivo; conditions: orally, mice
# Method: as §3, §4
# [4] = P.O., 14 days observation, Litchfield and Wilcoxon Method, read-out: Median lethal dose (LD50)
SMILES,inhibition in vivo at 0.2 mg/kg [1],ED50 ([2]; first series (Table 2-1)),Kb (Histamine H2 -Receptor),LD50 at 336 h [3],Efficacy Ratio relative to Cimetidine (Cimetidine = 1) [2],"LD50 at 336 h [3, 4]",acute toxicity / LD50 (in words) (Mice),ED50 ([2]; second series (Table 2-2))
"Nc1c(NC/C=C\COc2cc(CN3CCCCC3)ccn2)c(=O)c1=O [Ex. 1, 1-amino-2-[4-<4-(1-piperidinomethyl)pyridyl-2-oxy>-cis-2-butenylamino]-1-cyclobuten-3,4-dione]",54%,0.15 mg/kg,339 nM,> 1500 mg/kg,,,,
"CNc1c(NC/C=C\COc2cc(CN3CCCCC3)ccn2)c(=O)c1=O [Ex. 2, 1-methylamino-2-[4-<4-(1-piperidinomethyl)pyridyl-2-oxy>-cis-2-butenylamino]-1-cyclobuten-3,4-dione]",60%,0.27 mg/kg,174 nM,,25.9,> 1500 mg/kg,,
"Nc1n[s+]([O-])nc1NC/C=C/COc1cc(CN2CCCCC2)ccn1 (stereo not drawn) [Ex. 9, 3-amino-4-[4-<4-(1-piperidinomethyl)pyridyl-2-oxy>-trans-2-butenylamino]-1,2,5-thiadiazole-1-oxide]",62%,0.46 mg/kg,339 nM,,15.2,> 1500 mg/kg,,
"CN(C)Cc1ccnc(OC/C=C\CNc2n[s+]([O-])nc2N)c1 (stereo not drawn) [Ex. 11, 3-amino-4-<4-(4-dimethylaminomethylpyridyl-2-oxy)-cis-2-butenylamino>-1,2,5-thiadiazole-1-oxide]",101%,,490 nM,,,> 1500 mg/kg,,
"CNc1n[s+]([O-])nc1NC/C=C\COc1cc(CN(C)C)ccn1 (stereo not drawn) [Ex. 12, 3-methylamino-4-<4-(4-dimethylaminomethylpyridyl-2-oxy)-cis-2-butenylamino>-1,2,5-thiadiazole-1-oxide]",91%,,263 nM,,,> 1500 mg/kg,,
"Cn1nc(N)nc1NC/C=C\COc1cc(CN2CCCCC2)ccn1 [Ex. 19, 3-amino-1-methyl-5-[4-<4-(1-piperidinomethyl)pyridyl-2-oxy>-cis-2-butenylamino]-1H-1,2,4-triazole]",3%,,759 nM,,,> 1500 mg/kg,,
"O=c1nc(NC/C=C\COc2cc(CN3CCCCC3)ccn2)[nH]cc1Cc1cccnc1 [Ex. 22, 2-[4-<4-(1-piperidinomethyl)pyridyl-2-oxy>-cis-2-butenylamino]-5-(3-pyridylmethyl)-1H-pyrimidin-4-one]",40%,,363 nM,,,1600 mg/kg,lower LD50 values than that of Cimetidine,
"Nc1n[nH]c(=O)nc1NC/C=C\COc1cc(CN2CCCCC2)ccn1 [Ex. 27, 6-amino-5-[4-<4-(1-piperidinomethyl)pyridyl-2-oxy>-cis-2-butenylamino]-1,2,4-triazin-3-one]",88%,,275 nM,,,> 1500 mg/kg,,
"Cn1nc(N)c(NC/C=C\COc2cc(CN3CCCCC3)ccn2)nc1=O [Ex. 29, 6-amino-2-methyl-5-[4-<4-(1-piperidinomethyl)pyridyl-2-oxy>-cis-2-butenylamino]-1,2,4-triazin-3-one]",74%,,708 nM,,,1250 mg/kg,lower LD50 values than that of Cimetidine,
"Nc1c(NC/C=C\COc2cccc(CN3CCCCC3)n2)c(=O)c1=O [Ex. 32, 1-amino-2-[4-<6-(1-piperidinomethyl)pyridyl-2-oxy>-cis-2-butenylamino]-1-cyclobuten-3,4-dione]",33%,,490 nM,,32.8,,,0.25 mg/kg
"NC1=NS(=O)(=O)N=C1NC/C=C\COc1cccc(CN2CCCCC2)n1 [Ex. 36, 3-amino-4-[4-<6-(1-piperidinomethyl)pyridyl-2-oxy>-cis-2-butenylamino]-1,2,5-thiadiazole-1,1-dioxide]",72%,,263 nM,,41.0,,,0.2 mg/kg
